Values joined by “and” are separate entries in the source; they are usually repeats but may differ in a detail not shown here. Identical values can stand only once. Inconclusive results and toxic doses are left out. How the source made its calls: active means survival T/C of 150% or more; inactive means T/C below 125% in these data.
Tested on: P388 leukemia ip, CD2F1 mice, survival T/C
Experiment: NCI In Vivo Anticancer Drug Screen. Data for tumor model P388 Leukemia (intraperitoneal) in CD2F1 (CDF1) mice
Settings: endpoint: median survival time, higher = longer survival
How it was run: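 Mice carrying the transplanted tumor received test compound or vehicle. Survival was recorded in each group, and the value is the treated-group measurement divided by that of the vehicle-treated control group.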

[1] = dose: 50.0 mg/kg/injection, schedule: Q01DX001 (ip), vehicle: saline with Tween-80
[2] = dose: 100.0 mg/kg/injection, schedule: Q01DX001 (ip), vehicle: saline with Tween-80
[3] = dose: 12.5 mg/kg/injection, schedule: Q01DX005 (ip), vehicle: saline with Tween-80
[4] = dose: 25.0 mg/kg/injection, schedule: Q01DX005 (ip), vehicle: saline with Tween-80
[5] = dose: 50.0 mg/kg/injection, schedule: Q01DX005 (ip), vehicle: saline with Tween-80
[6] = dose: 100.0 mg/kg/injection, schedule: Q01DX009 (ip), vehicle: Klucel (hydroxypropylcellulose) (HPC)
[7] = dose: 100.0 mg/kg/injection, schedule: Q04DX003 (ip), vehicle: saline with Tween-80
[8] = dose: 60.0 mg/kg/injection, schedule: Q01DX005 (ip), vehicle: saline with Tween-80
[9] = dose: 120.0 mg/kg/injection, schedule: Q01DX005 (ip), vehicle: saline with Tween-80
[10] = dose: 240.0 mg/kg/injection, schedule: Q01DX005 (ip), vehicle: saline with Tween-80
[11] = dose: 200.0 mg/kg/injection, schedule: Q01DX009 (ip), vehicle: saline with Tween-80
[12] = dose: 200.0 mg/kg/injection, schedule: Q04DX003 (ip), vehicle: saline with Tween-80
[13] = dose: 400.0 mg/kg/injection, schedule: Q04DX003 (ip), vehicle: saline with Tween-80
[14] = dose: 50.0 mg/kg/injection, schedule: Q01DX005 (ip), vehicle: Klucel (hydroxypropylcellulose) (HPC)
[15] = dose: 50.0 mg/kg/injection, schedule: Q01DX005 (ip), vehicle: saline
[16] = dose: 100.0 mg/kg/injection, schedule: Q01DX005 (ip), vehicle: Klucel (hydroxypropylcellulose) (HPC)
[17] = dose: 100.0 mg/kg/injection, schedule: Q01DX005 (ip), vehicle: saline
[18] = dose: 200.0 mg/kg/injection, schedule: Q01DX005 (ip), vehicle: saline
[19] = dose: 50.0 mg/kg/injection, schedule: Q01DX009 (ip), vehicle: saline with Tween-80
[20] = dose: 100.0 mg/kg/injection, schedule: Q01DX009 (ip), vehicle: saline with Tween-80
[21] = dose: 100.0 mg/kg/injection, schedule: Q01DX005 (ip), vehicle: saline with Tween-80

Measured: T/C

CCOP(O)(=S)OCC.[Fe]
inactive: dose: 25.0 mg/kg/injection, schedule: Q01DX001 (ip), vehicle: saline with Tween-80 89 % of control | dose: 33.0 mg/kg/injection, schedule: Q01DX001 (ip), vehicle: saline with Tween-80 96 % of control | [1] 94 % of control | dose: 50.0 mg/kg/injection, schedule: Q04DX003 (ip), vehicle: saline 97 % of control | dose: 75.0 mg/kg/injection, schedule: Q01DX001 (ip), vehicle: saline with Tween-80 90 % of control and 95 % of control | [2] 90 % of control | dose: 100.0 mg/kg/injection, schedule: Q04DX003 (ip), vehicle: saline 101 % of control | dose: 200.0 mg/kg/injection, schedule: Q04DX003 (ip), vehicle: saline 100 % of control | dose: 400.0 mg/kg/injection, schedule: Q04DX003 (ip), vehicle: saline 90 % of control

CNCC(=O)Nc1ccc2c(c1)C(=O)c1ccc(NC(=O)CNC)cc1C2=O
inactive: dose: 94.75 mg/kg/injection, schedule: Q01DX001 (ip), vehicle: suspension in saline 110 % of control

O=[N+]([O-])c1nc(Br)n[nH]1
inactive: dose: 100.0 mg/kg/injection, schedule: Q04DX002 (ip), vehicle: water 107 % of control | dose: 200.0 mg/kg/injection, schedule: Q04DX002 (ip), vehicle: water 106 % of control

CC1CCCN(CC(O)CN2C[C@@H](C)N(CC(O)CN3CCCC(C)C3)[C@H](C)C2)C1 (some centres not stated)
inactive: [3] 100 % of control | [4] 100 % of control | [5] 100 % of control and 112 % of control

S=C(Nc1ccc(Cl)c(Cl)c1)SCc1ccc2c(c1)OCO2
inactive: dose: 12.5 mg/kg/injection, schedule: Q01DX009 (ip), vehicle: Klucel (hydroxypropylcellulose) (HPC) 116 % of control | dose: 25.0 mg/kg/injection, schedule: Q01DX009 (ip), vehicle: Klucel (hydroxypropylcellulose) (HPC) 120 % of control | dose: 50.0 mg/kg/injection, schedule: Q01DX009 (ip), vehicle: Klucel (hydroxypropylcellulose) (HPC) 121 % of control | [6] 112 % of control and 97 % of control

COc1cc2c(cc1OC)NC(=O)C2
inactive: dose: 50.0 mg/kg/injection, schedule: Q04DX003 (ip), vehicle: saline with Tween-80 97 % of control | [7] 98 % of control

CC(=O)c1oc2cc([N+](=O)[O-])c3ccccc3c2c1C
inactive: [8] 107 % of control | [9] 98 % of control | [10] 88 % of control

CS(=O)(=O)OCC(=O)NCC(O)CNC(=O)COS(C)(=O)=O
active: [11] 175 % of control | [12] 181 % of control | [13] 162 % of control and 181 % of control

C1CC[N-]CC1.C1CC[N-]CC1.N#C[S-].N#C[S-].[Cu]
inactive: dose: 1.25 mg/kg/injection, schedule: Q04DX003 (ip), vehicle: saline with Tween-80 100 % of control | dose: 2.5 mg/kg/injection, schedule: Q04DX003 (ip), vehicle: saline with Tween-80 100 % of control | dose: 5.0 mg/kg/injection, schedule: Q04DX003 (ip), vehicle: saline with Tween-80 90 % of control | dose: 10.0 mg/kg/injection, schedule: Q04DX003 (ip), vehicle: saline with Tween-80 90 % of control

CCOC(=O)C#Cc1cccc(C#CC(=O)OCC)c1
inactive: [1] 98 % of control | [2] 99 % of control and 118 % of control | dose: 200.0 mg/kg/injection, schedule: Q01DX001 (ip), vehicle: saline with Tween-80 120 % of control

Cc1noc2c1C(=O)c1ccccc1SC2
inactive: [8] 103 % of control | [9] 94 % of control | [10] 105 % of control

O=C1OC(C(O)CO)C(O)C1O (configuration not stated)
inactive: [14] 99 % of control | [15] 94 % of control and 109 % of control and 102 % of control | [16] 97 % of control | [17] 96 % of control and 105 % of control and 98 % of control | dose: 200.0 mg/kg/injection, schedule: Q01DX005 (ip), vehicle: Klucel (hydroxypropylcellulose) (HPC) 101 % of control | [18] 96 % of control and 105 % of control

O=C(CC(=O)C(F)(F)F)c1cc2ccccc2s1
inactive: dose: 25.0 mg/kg/injection, schedule: Q01DX009 (ip), vehicle: saline with Tween-80 113 % of control | [19] 96 % of control | [20] 115 % of control

CSC(=NNC(N)=O)SC
inactive: [7] 100 % of control | [12] 102 % of control | [13] 102 % of control

CCNNC(=O)[C@@H]1[C@H](c2cc(OC)c(OC)c(OC)c2)c2cc3c(cc2[C@H](O)[C@H]1CO)OCO3
inactive: [7] 109 % of control | [12] 113 % of control | [13] 104 % of control

CCCCCCC(=O)/C=C/c1cc(Cl)cc(Cl)c1OCOC
inactive: [6] 116 % of control | dose: 200.0 mg/kg/injection, schedule: Q01DX009 (ip), vehicle: Klucel (hydroxypropylcellulose) (HPC) 100 % of control

c1ccc(C2=NCC(c3ccccc3)(C3(c4ccccc4)SCCCS3)O2)cc1 (configuration not stated)
inactive: [7] 95 % of control | [12] 97 % of control | [13] 91 % of control

CC(=O)OCC(C)(C)COC1OCN(C(C)(C)C)CC1(C)C (configuration not stated)
inactive: dose: 10.0 mg/kg/injection, schedule: Q01DX009 (ip), vehicle: saline with Tween-80 94 % of control | dose: 20.0 mg/kg/injection, schedule: Q01DX009 (ip), vehicle: saline with Tween-80 104 % of control | dose: 40.0 mg/kg/injection, schedule: Q01DX009 (ip), vehicle: saline with Tween-80 110 % of control

CN(/N=C/c1ccccc1O)C(=O)c1ccccc1N
inactive: [19] 105 % of control | [20] 107 % of control | [11] 104 % of control

CN1CCC/C1=C1/Cc2ccccc2C1=O
inactive: [14] 91 % of control | [16] 108 % of control

COc1c(CBr)c(CBr)c(OC)c2c1C(=O)c1ccccc1C2=O
inactive: [3] 100 % of control | [4] 99 % of control | [5] 100 % of control and 112 % of control | [21] 95 % of control

CCCCCC(=O)C(C)(c1nc2n(c1O)/C(=N/C(=O)Nc1ccc(Cl)cc1)N=N2)c1nc2n(c1O)/C(=N/C(=O)Nc1ccc(Cl)cc1)N=N2
inactive: [8] 89 % of control | [9] 88 % of control | [10] 86 % of control

CN(NC=O)C(=N)N
inactive: dose: 50.0 mg/kg/injection, schedule: Q01DX001 (ip), vehicle: saline 109 % of control | dose: 100.0 mg/kg/injection, schedule: Q01DX001 (ip), vehicle: saline 100 % of control | dose: 200.0 mg/kg/injection, schedule: Q01DX001 (ip), vehicle: saline 102 % of control

O=[N+]([O-])C(CO)CCCC(CO)[N+](=O)[O-] (configuration not stated)
inactive: [15] 111 % of control | [17] 107 % of control | [18] 107 % of control

CCN(CC)CCN1C(=O)C2C3C=CC(C2C1=O)C1C2C(=O)N(CCN(CC)CC)C(=O)C2C31 (configuration not stated)
inactive: dose: 6.25 mg/kg/injection, schedule: Q01DX009 (ip), vehicle: water 104 % of control | dose: 12.5 mg/kg/injection, schedule: Q01DX009 (ip), vehicle: water 99 % of control and 100 % of control | dose: 25.0 mg/kg/injection, schedule: Q01DX009 (ip), vehicle: water 100 % of control and 111 % of control | dose: 50.0 mg/kg/injection, schedule: Q01DX009 (ip), vehicle: water 99 % of control and 103 % of control | dose: 100.0 mg/kg/injection, schedule: Q01DX009 (ip), vehicle: water 101 % of control and 111 % of control

Cc1nc2cc(C(F)(F)F)cc(N)c2n1-c1ccccc1
inactive: [5] 113 % of control | [21] 106 % of control | dose: 200.0 mg/kg/injection, schedule: Q01DX005 (ip), vehicle: saline with Tween-80 111 % of control

CSc1c2c([nH]c(=O)c1C#N)-c1ccccc1CC2
inactive: dose: 30.0 mg/kg/injection, schedule: Q01DX005 (ip), vehicle: saline with Tween-80 89 % of control | [8] 91 % of control | [9] 95 % of control and 96 % of control | [10] 88 % of control

O=c1cc[nH]c2c1ccc1[nH]ccc(=O)c12
inactive: dose: 60.0 mg/kg/injection, schedule: Q01DX005 (ip), vehicle: Klucel (hydroxypropylcellulose) (HPC) 108 % of control | dose: 120.0 mg/kg/injection, schedule: Q01DX005 (ip), vehicle: Klucel (hydroxypropylcellulose) (HPC) 99 % of control | dose: 240.0 mg/kg/injection, schedule: Q01DX005 (ip), vehicle: Klucel (hydroxypropylcellulose) (HPC) 99 % of control

O=C1NC(=O)C2(CCc3ccccc3C2)N1 (configuration not stated)
inactive: [19] 100 % of control | [20] 100 % of control | [11] 96 % of control | dose: 400.0 mg/kg/injection, schedule: Q01DX009 (ip), vehicle: saline with Tween-80 97 % of control
